This note sets out measurements from patent publication US5593970A, “Heterocyclic anthracycline analogs” (priority 1994, dated 1997).

Series [1] has as its system MATB/ADR. Description: Soft agar colony formation disk diffusion assay. The series is classed as cell-based, rat. The gist of the method: (§1)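 Tumour cells from in vivo-maintained murine tumours or ascites were plated in the upper layer (0.4% Noble agar) of a two-layer soft-agar matrix, with solid and leukemic lines kept separate. Compound dissolved in DMSO/water was dried onto a 6.5 mm filter disk. After 10–20 days at 37 °C, the inhibition zone from disk edge to nearest colony (>50 cells) was measured by micrometer.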

Series [2] relates to MATB.WT. Description: Soft agar colony formation disk diffusion assay. The series is classed as cell-based, rat. The gist of the method: as §1
Series [3] concerns LOX. Description: Microculture tetrazolium assay. The series is classed as cell-based. Particulars: read-out: IC50.
Series [4] concerns P388/ADR. Description: Soft agar colony formation disk diffusion assay. The series is classed as cell-based, murine. From the text: (§2) A more elaborate version of this fundamental assay, the soft agar colony formation disk diffusion assay was used. This assay defines the relative activity of one particular drug versus a tumoral cell line type. The effect of the test drug against tumoral cells could be measured by its inhibitory capacity against colony formation after the delivery of the compound, in different concentrations on an filter disk(4). A modified technique of this assay was used in order to investigate the antiproliferative activity of candidate compounds. Tumoral cells from solid tumors and ascitic lines were plated separately in a two layer agar matrix. Cell lines to be tested were suspended in an upper layer of 0.4% Noble agar (Difco#00142-01) in RPMI-1066 (Gibco#3201875) at a yield varying between 10^4 to 2×10^5 cells per 60 mm Petri dish. Plating efficiency was determined for each line in order to achieve an optimal number of colonies per dish. Plates were examined before drug administration to confirm a uniform dispersion of single cells. The bottom layer consisted of 0.8% Noble agar, 0.8% Tryptic Soy Broth (difco#0037001)in CMRL-1066/Fischer's. The bottom layers were used within 2 and 9 days of preparation. Plated dishes (bottom layer of agar, upper layer of cells and administered drug were incubated in humidified atmosphere at 37° C., 5% CO2 for 10-20 days depending upon the time necessary to observe adequate colonies (defined as a cell aggregate of more than 50 cells) both control and drug inhibited. Drugs were administered on a paper filter disk (Whatman No. 1) of 6.5 mm diameter placed on the upper layer at 1/3 distance from the edge of the dish. The anti-clonogenic activity of the compounds was measured as the zone of inhibition from the disk edge to the most proximal colonies. This zone of inhibition was checked on an inverted microscope (40×) and was measured with a micrometer mounted in the eyepiece. The ocular micrometer was calibrated with a stage micrometer set for a particular combination of ocular and objective lenses. […] We made a modification of the initial technique by not plating a solid tumor and a leukemia simultaneously in the same Petri dish. Anti-clonogenic tests performed on leukemia cell line have helped in the discovery of the majority of current clinically used cytostatic drugs. Our tests on solid tumor lines (animal or human) may help define active compounds with solid tumor specificity. […] Murine tumors were maintained IN VIVO in order to diminish the selection of subpopulations of cells normally present in the heterogenous IN VIVO tumor. The actual drug sensitivity assay was done IN VITRO. For these experiments cells from freshly excised tumors or from ascitic fluids were maintained in RPMI-1066. Both compounds were dissolved in DMSO (1 mg/100 ul) and brought to final volume (250 ul) with Millipore deionized sterile water. Further dilutions were made with […] volume of 25 ul of freshly prepared solution was placed on the filter disk and allowed to dry.
(In general: Agar diffusion results depend on both activity and mobility in agar.)

Series [5] relates to M5076. Description: Soft agar colony formation disk diffusion assay. The series is classed as cell-based, murine.
Source text: as §2

Series [6] relates to P388. Description: Soft agar colony formation disk diffusion assay. The series is classed as cell-based, murine.
Source text: as §2

For series [7], the system named is B16. Description: Soft agar colony formation disk diffusion assay. The series is classed as cell-based, murine.
Source text: as §2

The test system of series [8] is Renal. Description: NCI assay, average per cancer type. Particulars: Homo sapiens; for CC50: 48 h, read-out: Average LOG10 LC50; for GI50: read-out: Average LOG10 GI50.
Series [9] has as its system NSC Lung. Description: NCI assay, average per cancer type. Particulars: Homo sapiens; for CC50: 48 h, read-out: Average LOG10 LC50; for GI50: read-out: Average LOG10 GI50.
In series [10] the test system is tumor cell lines. Description: NCI sulforhodamine B assay, all cell lines. As to conditions: for CC50 / IC100: 48 h; for CC50: read-out: Log10 LC50, Mean / MG-MID, all cell lines (converted); for IC100: read-out: Log10 TGI, Mean / MG-MID, all cell lines. Background: The SRB assay estimates cell density from bound dye.
For series [11], the system named is solid tumors. Description: NCI assay, mean potency in solid tumors. As to conditions: for GI50: read-out: Average LOG10 GI50, Mean Potency in solid tumors.
The subject of series [12] is SC Lung. Description: NCI assay, average per cancer type. As to conditions: Homo sapiens; for GI50: read-out: Average LOG10 GI50.
In series [13] the test system is Colon. Description: NCI assay, average per cancer type. Particulars: Homo sapiens; for CC50: 48 h, read-out: Average LOG10 LC50; for GI50: read-out: Average LOG10 GI50.

As for “3-(2-acetoxy-1-propeneketal)aceto-6-acetoxy-1-hydroxy-1,2,3,4-tetrahydro-(2-oxygen)naphtacene-5,12-dione and 3-(2-acetoxy-1-propeneketal)-aceto-11-acetoxy-1-hydroxy-1,2,3,4-tetrahydro-(2-oxygen)naphtacene-5,12-dione [BCH-710]”, in series [1], the “cross resistance with adriamycin, MATB/ADR vs MATB.WT” value was “greater cytotoxicity in the resistant breast tumor cell line”. For the same molecule, the zone of inhibition in [1] (10 μg/DISK) turned out to be 288.0 ± 21.9 Zone Units; in [1] (100 μg/DISK), 350.0 ± 64.3 Zone Units; in series [2] (10 μg/DISK), 44.0 Zone Units; in series [2] (100 μg/DISK), 366.0 ± 0.0 Zone Units; in [4] (10 μg/DISK) it was 0 Zone Units; in [4] (100 μg/DISK), 110.0 ± 0.0 Zone Units. For the same molecule, the zone of inhibition is on record as 209.5 ± 21.9 Zone Units in series [5] (10 μg/DISK); 533.0 ± 20.0 Zone Units in [5] (100 μg/DISK); 13.0 ± 0.0 Zone Units in [6] (10 μg/DISK); 326.5 ± 43.1 Zone Units in series [6] (100 μg/DISK); 21.0 ± 2.1 Zone Units in [7] (10 μg/DISK); 21.0 ± 2.1 Zone Units in series [7] (100 μg/DISK). Moreover, in series [3], the IC50 came out at 3.51 µM.

As to `COC(=O)C1CC2=C(C(=O)c3c(cc4ccccc4c3O)C2=O)C(O[C@H]2C[C@H](NC(=O)C(F)(F)F)[C@H](O)[C@H](C)O2)O1` (mixture of isomers) [BCH-242, (1'S,1R,3S) and (1'S, 1S,3R)-Methyl[11-hydroxy-1-2',3',6'-trideoxy-3-trifluroacetamido-L-lyxohexopyranose)-5,12-dioxo-3,4,5,12-tetrahydroanthraceno[2,3-c]pyran-3-yl]formate], the CC50 in series [8] was 6.03 µM; in [9], 6.17 µM; in series [10] (Homo sapiens) it was 14.5 µM; in series [13] it was 2.57 µM. Moreover, the GI50 in series [8] is 0.955 µM; in series [9], 0.977 µM; in [11] (Homo sapiens), 0.661 µM; in [12], 0.355 µM; in series [13], 0.316 µM. Further, the “antiproliferative and cytotoxic activity in words” value in series [10] was “most of the cell lines of solid tumors ultimately show cytotoxicity to the drug”. Moreover, in series [10] (Homo sapiens), the IC100 worked out at 5.25 µM. The “Log10 TGI, Mean / MG-MID” value in [10] (all cell lines) is on record as -5.52 log molar. Moreover, the “Log10 LC50, Mean / MG-MID” value in [10] (all cell lines, 2880 min) is -5.09 log molar. In addition, the “Average LOG10 LC50, Mean Potency in solid tumors” value in [11] (solid tumors, 2880 min) is on record as -5.32 ± 0.20 log molar.

As for `CCOC(=O)[C@@H]1CC2=C(C(=O)c3cc4ccccc4c(O)c3C2=O)[C@@H](O[C@H]2C[C@H](NC(=O)C(F)(F)F)[C@H](O)[C@H](C)O2)O1` [BCH-681, (1'S,1R,3S)Ethyl[6-hydroxy-5,12-dioxo-1-(3'-trifuloroacetamido-1-daunosaminyl)-3,4,5,12-tetrahydroanthraceno(2,3-C)pyran-3-yl]formate], the CC50 is 21.9 µM in series [8]; 22.9 µM in series [9]; 16.2 µM in series [10] (Homo sapiens); 12.3 µM in [11] (Homo sapiens, 48 h, read-out: Average LOG10 LC50, Mean Potency in solid tumors); 6.61 µM in series [12] (48 h, read-out: Average LOG10 LC50); 7.24 µM in series [13]. The GI50 in series [8] is 3.02 µM; in series [9], 2.88 µM; in series [10] (Homo sapiens, read-out: Log10 GI50, Mean / MG-MID, all cell lines (converted)), 2.14 µM; in [11] (Homo sapiens), 2.09 µM; in series [12] it was 1.7 µM; in [13] it was 1.41 µM. The “cross resistance with adriamycin, MATB/ADR vs MATB.WT” value in series [1] is “no cross resistance with adriamycin”. The zone of inhibition in [1] (10 μg/DISK) is given as 54.9 ± 8.6 Zone Units; in series [1] (100 μg/DISK), 244.0 ± 43.1 Zone Units; in series [2] (10 μg/DISK), 51.8 ± 4.3 Zone Units; in [2] (100 μg/DISK), 176.9 ± 8.6 Zone Units. For the same molecule, in [3], the IC50 came out at 4.89 µM. The IC100 in series [10] (Homo sapiens) is 5.5 µM.

Regarding `CCOC(=O)[C@H]1CC2=C(C(=O)c3cc4ccccc4c(O)c3C2=O)[C@H](O[C@H]2C[C@H](NC(=O)C(F)(F)F)[C@H](O)[C@H](C)O2)O1` [BCH-684, (1'S,1S,3R)Ethyl[6-hydroxy-5,12-dioxo-1-(3'-trifluoroacetamido-1-daunosaminyl)-3,4,5,12-tetrahydroanthraceno(2,3-C)pyran-3-yl]formate], the “cross resistance with adriamycin, MATB/ADR vs MATB.WT” value in [1] was “no cross resistance with adriamycin”. Further, the zone of inhibition in series [1] (10 μg/DISK) worked out at 122.0 ± 17.0 Zone Units; in series [1] (100 μg/DISK), 320.2 ± 107.8 Zone Units; in series [2] (10 μg/DISK) it was 131.3 ± 12.9 Zone Units; in series [2] (100 μg/DISK), 366.0 ± 172.5 Zone Units.

As to `CC(=O)Oc1c2c(c(O)c3ccccc13)C(=O)C1=C(C2=O)C(O)OC(C(C)=O)C1` (centres unmarked) [BCH-704, Methyl(11-acetoxy-1,6-dihydroxy-5,12-dioxo-3,4,5,12-tetrahydroanthraceno[2,3-c]pyran-3-yl)ketone], the “cross resistance with adriamycin, MATB/ADR vs MATB.WT” value in series [1] is on record as “greater cytotoxicity in the resistant breast tumor cell line”. Further, the zone of inhibition in [1] (10 μg/DISK) is given as 320.2 ± 64.7 Zone Units; in series [1] (100 μg/DISK), 527.4 ± 72.9 Zone Units; in [2] (10 μg/DISK), 198.5 ± 21.9 Zone Units; in series [2] (100 μg/DISK) it was 414.8 ± 25.8 Zone Units. Further, in series [3], the IC50 turned out to be 28.3 µM.

On to `C=CC1CC2=C(C(=O)c3cc4ccccc4c(O)c3C2=O)C(OC)O1` (centres unmarked) [BCH-712, 6-hydroxy-1-methoxy-1,2,3,4-tetrahydro-3-vinyl-(2-oxygen) naphthacene-5,12-dione], for which the “cross resistance with adriamycin, MATB/ADR vs MATB.WT” value in series [1] was “no cross resistance with adriamycin”. Moreover, the zone of inhibition in [1] (10 μg/DISK) is 0 Zone Units; in series [1] (100 μg/DISK), 64.0 ± 4.2 Zone Units; in series [2] (10 μg/DISK), 21.0 ± 4.3 Zone Units; in [2] (100 μg/DISK), 76.0 ± 21.2 Zone Units; in series [4] (10 μg/DISK), 0 Zone Units; in [4] (100 μg/DISK) it was 42.5 ± 9.1 Zone Units. Besides, the zone of inhibition came out at 0 Zone Units in series [5] (10 μg/DISK); 158.0 ± 34.6 Zone Units in series [5] (100 μg/DISK); 6.1 ± 0.0 Zone Units in series [6] (10 μg/DISK); 70.0 ± 21.2 Zone Units in series [6] (100 μg/DISK); 0 Zone Units in series [7] (10 μg/DISK); 27.0 ± 4.2 Zone Units in series [7] (100 μg/DISK).

What is called IC50 is the concentration that inhibits the measured activity by half.
